Laboratory results published in patent US9822110B2, “Sulfonamide derivative and pharmaceutical use thereof” (EA Pharma Co., Ltd., priority 2013, dated 2017).

Target: T1, MAdCAM-1/α4β7 integrin (Homo sapiens, UniProt P13612+P26010)
T1 construct: a human B-cell line known to express α4β7 integrin; endogenous in cells; host or cells: RPMI-8866 (human B-cell line)
T1 sequence (P13612 34-1032): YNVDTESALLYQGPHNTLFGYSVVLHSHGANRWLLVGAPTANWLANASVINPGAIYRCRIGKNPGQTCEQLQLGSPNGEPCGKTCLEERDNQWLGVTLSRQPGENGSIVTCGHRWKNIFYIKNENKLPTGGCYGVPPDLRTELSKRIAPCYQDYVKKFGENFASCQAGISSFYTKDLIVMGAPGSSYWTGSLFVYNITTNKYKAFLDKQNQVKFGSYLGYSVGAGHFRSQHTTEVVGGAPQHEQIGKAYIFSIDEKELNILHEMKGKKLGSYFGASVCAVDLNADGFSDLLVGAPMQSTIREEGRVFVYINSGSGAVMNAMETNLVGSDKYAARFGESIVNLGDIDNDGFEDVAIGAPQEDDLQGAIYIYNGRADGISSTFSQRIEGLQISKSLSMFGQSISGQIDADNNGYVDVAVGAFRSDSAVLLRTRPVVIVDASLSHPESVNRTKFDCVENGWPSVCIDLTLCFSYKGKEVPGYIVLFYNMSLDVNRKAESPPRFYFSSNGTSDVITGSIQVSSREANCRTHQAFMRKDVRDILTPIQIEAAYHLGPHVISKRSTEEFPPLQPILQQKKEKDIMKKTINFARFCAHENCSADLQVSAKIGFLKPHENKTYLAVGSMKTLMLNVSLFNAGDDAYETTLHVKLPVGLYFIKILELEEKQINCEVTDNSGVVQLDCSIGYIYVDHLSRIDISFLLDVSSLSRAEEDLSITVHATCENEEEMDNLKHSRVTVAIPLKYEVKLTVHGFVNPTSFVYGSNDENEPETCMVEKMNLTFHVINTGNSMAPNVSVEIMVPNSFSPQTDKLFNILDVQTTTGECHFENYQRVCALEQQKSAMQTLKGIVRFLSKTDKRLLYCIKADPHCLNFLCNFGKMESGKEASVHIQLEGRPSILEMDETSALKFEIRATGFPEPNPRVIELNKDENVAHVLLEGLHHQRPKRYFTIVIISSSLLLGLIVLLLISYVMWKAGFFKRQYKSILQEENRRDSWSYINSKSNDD
T1 sequence (P26010 20-798): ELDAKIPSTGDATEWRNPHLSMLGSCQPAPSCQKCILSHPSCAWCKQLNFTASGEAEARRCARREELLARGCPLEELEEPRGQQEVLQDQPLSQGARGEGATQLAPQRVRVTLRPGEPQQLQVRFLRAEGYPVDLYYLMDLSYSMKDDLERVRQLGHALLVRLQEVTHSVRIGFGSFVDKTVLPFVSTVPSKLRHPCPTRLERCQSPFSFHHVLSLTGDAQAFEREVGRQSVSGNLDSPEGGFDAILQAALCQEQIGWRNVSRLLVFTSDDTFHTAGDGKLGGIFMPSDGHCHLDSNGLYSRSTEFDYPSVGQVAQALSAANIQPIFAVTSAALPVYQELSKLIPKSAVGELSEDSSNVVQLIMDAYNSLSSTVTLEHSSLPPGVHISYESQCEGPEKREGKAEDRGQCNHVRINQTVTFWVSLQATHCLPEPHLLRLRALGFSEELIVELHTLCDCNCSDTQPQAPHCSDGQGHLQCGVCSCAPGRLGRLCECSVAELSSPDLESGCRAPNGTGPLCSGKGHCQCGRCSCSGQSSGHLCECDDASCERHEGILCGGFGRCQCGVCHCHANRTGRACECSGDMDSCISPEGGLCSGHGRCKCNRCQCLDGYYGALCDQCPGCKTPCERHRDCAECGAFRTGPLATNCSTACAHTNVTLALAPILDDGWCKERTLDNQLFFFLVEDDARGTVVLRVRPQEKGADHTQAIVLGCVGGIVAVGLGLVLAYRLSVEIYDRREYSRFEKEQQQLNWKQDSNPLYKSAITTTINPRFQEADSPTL
Test: Evaluation test (1) for MAdCAM-1/α4β7 integrin binding inhibitory activity in the presence of serum (RPMI-8866 cell binding to MAdCAM-1/Fc)
Type: cell-based
Conditions: RPMI-8866 cells, recombinant mouse MAdCAM-1/Fc, human serum at final concentration of 50%; read-out: α4β7 Serum Activity rank when α4β7 serum was added
Method: The selectivity was determined by dividing the IC50 value in the evaluation test for VCAM-1/α4β1 integrin binding inhibitory activity by the IC50 value in the evaluation test for MAdCAM-1/α4β7 integrin binding inhibitory activity. • (3) Evaluation Test (1) for MAdCAM-1/α4β7 Integrin Binding Inhibitory Activity in the Presence of Serum
The ability of test substances to inhibit the binding of RPMI-8866 cell line, a human B-cell line known to express α4β7 integrin, to MAdCAM-1 was examined.
A 96-well microtiter plate was coated overnight at 4° C. with a recombinant mouse MAdCAM-1/Fc (R&D systems) solution diluted with the buffer A (carbonate buffer, pH 9.6). After washing once with PBS, 150 μL/well of Block Ace (manufactured by Snow Brand Milk Products Co., Ltd.) was added, and it was incubated at room temperature for 2 hours. After removal, it was washed once with PBS.
100 μL of each of test substances and RPMI-8866 cells diluted with a binding buffer solution (DMEM containing 40 mM HEPES, 0.2% BSA, and 4 mM MnCl2) to various concentrations was added to the plate coated with MAdCAM-1/Fc, so that human serum was contained at a final concentration of 50%, and it was incubated at 30° C. for 15 minutes to 60 minutes. After the cells were bound to the wells, unbound cells were removed by washing with PBS. 50 μL/well of the buffer solution C (PBS containing 1.5% Triton X-100) was added to the plate to dissolve the bound RPMI-8866 cells. 30 μL of substrate buffer (Promega, CytoTox 96 Non-Radioactive Cytotoxicity Assay) was added to 30 μL of a cell lysate to allow a reaction for 30 minutes at room temperature in a dark place. 30 μL of stop solution (Promega, CytoTox 96 Non-Radioactive Cytotoxicity Assay) was added thereto to determine the absorbance at 490 nm using a plate reader. The absorbance was obtained herein by detecting the activity of lactate dehydrogenase (LDH) eluted in a supernatant of each well, that is, the absorbance is proportional to the number of RPMI-8866 cells remaining on the plate by being bound to MAdCAM-1. The test was duplicated, and the cell binding rate at various concentrations with the absorbance of the well containing no test substance being taken as 100% was determined, to calculate the concentration IC50 at which 50% of binding was inhibited.

Row | SMILES | IC50
1 | CN(C)CCc1ncc(-c2ccc(S(=O)(=O)Nc3cc(F)c(C(=O)N[C@@H](Cc4ccc(-n5c(=O)c6ccncc6n(C)c5=O)cn4)C(=O)O)cc3F)cc2)cn1 [Example 33, (2S)-2-[[4-[[4-[2-(2-Dimethylaminoethyl)pyrimidin-5-yl]phenyl]sulfonylamino]-2,5-difluoro-benzoyl]amino]-3-[5-(1-methyl-2,4-dioxo-pyrido[3,4-d]pyrimidin-3-yl)-2-pyridyl]propanoic acid] | 10 to 50 nM
2 | C=CCn1cc(-c2ccc(S(=O)(=O)Nc3cc(F)c(C(=O)N[C@@H](Cc4ccc(-n5c(=O)c6ccncc6n(C)c5=O)cn4)C(=O)O)cc3F)cc2)cnc1=O [Example 30, (2S)-2-[[4-[[4-(1-Allyl-2-oxo-pyrimidin-5-yl)phenyl]sulfonylamino]-2,5-difluoro-benzoyl]amino]-3-[5-(1-methyl-2,4-dioxo-pyrido[3,4-d]pyrimidin-3-yl)-2-pyridyl]propanoic acid] | 10 to 50 nM
3 | CNCc1ccc2c(c1)c(=O)n(-c1ccc(C[C@H](NC(=O)c3cc(F)c(NS(=O)(=O)c4ccc(-c5cnc(COC)nc5)cc4)cc3F)C(=O)O)cc1)c(=O)n2C [Example 39, (2S)-2-[[2,5-Difluoro-4-[[4-[2-(methoxymethyl)pyrimidin-5-yl]phenyl]sulfonylamino]benzoyl]amino]-3-[4-[1-methyl-6-(methylaminomethyl)-2,4-dioxo-quinazolin-3-yl]phenyl]propanoic acid] | 10 to 50 nM
4 | Cc1c(-c2ccc(C[C@H](NC(=O)c3cc(F)c(NS(=O)(=O)c4ccc(C5CCOCC5)cc4)cc3F)C(=O)O)cc2)c(=O)n(C)c(=O)n1C [Example 87, (2S)-2-[[2,5-Difluoro-4-[(4-tetrahydropyran-4-ylphenyl)sulfonylamino]benzoyl]amino]-3-[4-(1,3,4-trimethyl-2,6-dioxopyrimidin-5-yl)phenyl]propanoic acid] | > 200 nM
5 | Cc1cn(-c2ccc(S(=O)(=O)Nc3cc(F)c(C(=O)N[C@@H](Cc4ccc(-c5c(C)n(C)c(=O)n(C)c5=O)cc4)C(=O)O)cc3F)nc2)nn1 [Example 37, (2S)-2-[[2,5-Difluoro-4-[[5-(4-methyltriazol-1-yl)-2-pyridyl]sulfonylamino]benzoyl]amino]-3-[4-(1,3,4-trimethyl-2,6-dioxo-pyrimidin-5-yl)phenyl]propanoic acid] | 10 to 50 nM
6 | COCc1ncc(-c2ccc(S(=O)(=O)Nc3cc(F)c(C(=O)N[C@@H](Cc4ccc(-n5c(=O)c6ccncc6n(C)c5=O)nc4)C(=O)O)cc3F)cc2)cn1 [Example 51, (2S)-2-[[2,5-Difluoro-4-[[4-[2-(methoxymethyl)pyrimidin-5-yl]phenyl]sulfonylamino]benzoyl]amino]-3-[6-(1-methyl-2,4-dioxo-pyrido[3,4-d]pyrimidin-3-yl)-3-pyridyl]propanoic acid] | 10 to 50 nM
7 | Cc1cc(-c2ccccn2)ccc1S(=O)(=O)Nc1ccc(C(=O)N[C@@H](Cc2ccc(-c3c(C)n(C)c(=O)n(C)c3=O)cc2)C(=O)O)c(F)c1 [Example 46, (2S)-2-[[2-Fluoro-4-[[2-methyl-4-(2-pyridyl)phenyl]sulfonylamino]benzoyl]amino]-3-[4-(1,3,4-trimethyl-2,6-dioxo-pyrimidin-5-yl)phenyl]propanoic acid] | > 200 nM
8 | CC(C)OCc1ncc(-c2ccc(S(=O)(=O)Nc3cc(F)c(C(=O)N[C@@H](Cc4ccc(-n5c(=O)cc(C(F)(F)F)n(C)c5=O)cc4)C(=O)O)cc3F)cc2)cn1 [Example 44, (2S)-2-[[2,5-Difluoro-4-[[4-[2-(isopropoxymethyl)pyrimidin-5-yl]phenyl]sulfonylamino]benzoyl]amino]-3-[4-[3-methyl-2,6-dioxo-4-(trifluoromethyl)pyrimidin-1-yl]phenyl]propanoic acid] | 50 to 200 nM
